Data: patent US20160143926A1, “COMPOSITIONS AND METHODS FOR THE PREPARATION OF KIDNEY PROTECTIVE AGENTS COMPRISING AMIFOSTINE AND AMINO ACIDS” (priority 2013, published 2016)
Several values for one entry are separate records, joined by “and”; a condition that tells them apart may be missing. Identical values can stand only once. Like-named read-outs stand apart in the source and are kept apart here.

Assays:
kidneys [1] = test: Kidney protection / 68Ga-DOTATATE uptake in the kidneys, biodistribution studies in mice; format: in vivo; conditions: Amifostine alone at a dose of 0.63 mg/ml, co-administrated with 68Ga-DOTATATE
Description: The first i.v. injection of the composition may be scheduled 30 min prior to 68Ga-DOTATATE administration, while the next two injections may be performed at 15 min and 60 min, respectively, after the radiopeptide administration.
Kidney protection effects of Lysine-Arginine (12.4 mg/ml and 12.5 mg/ml, respectively) and commercially available Clinisol® and Gelofusine co-injected with ^68Ga-DOTATATE (40 uCi) are determined based on biodistribution studies in mice. Lysine-Arginine, Clinisol® and Gelofusine solutions were used as positive controls to determine the efficacies of compositions in accordance with embodiments of the invention.
Mice (n=5/group, male 6-8 weeks old) were given tail intravenous injection (200 ul) of respective solutions, 30 min prior to the administration of ^68Ga-DOTATATE, followed by further injections at 15 min and 1 hr post injection. An example of application schedule is illustrated in FIG. 1.
Mice were then sacrificed by CO2 asphyxiation, and kidneys were collected to determine the amounts of radiation absorbed, which are then compared to the total injected radioactive doses.
Mice (n=5/group, male 6-8 weeks old) were given tail intravenous injection (200 ul) of respective solutions, 30 min prior to the administration ^68Ga-DOTATATE, followed by further injections 15 min and 1 hr post injection, as described in Example 1.

kidneys [2] = conditions: rats, intravenous co-injection of 400 mg/kg with 111In-DTPA-octretide; cited from earlier work
kidneys [3] = conditions: patients, 111In-DTPA-octretreotide, cited from earlier work

For `NCCCNCCSP(=O)(O)O` [Amifostine], the “kidney protection, Amifostine used alone” value (kidneys [1]) was 12.24% and 12.2%.

In the case of `NCCCC[C@H](N)C(=O)O` [L-Lysine], the kidney protection (kidneys [2]) is given as 40%.

For `NCCCC[C@H](N)C(=O)O` [lysine], the kidney protection (kidneys [3]; 25 g of lysine) is listed as 17%±9% and the kidney protection (kidneys [3]; infusion of 75 g of lysine) is listed as 44%±11%.
